Assay results: patent US10294202B2, “Pyrrolidinones as herbicides” (FMC Corporation, priority 2013, dated 2019)

Assays:
goosegrass = assay: Test C pre-/postemergence herbicide test; assay type: in vivo, Eleusine indica
Summary of the method: (§1)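 Response scores range from 0, meaning no effect, to 100, meaning complete control, assigned visually by comparison with controls roughly two weeks (13 to 15 days) after spraying. Applications were made preemergence to seeded loam–sand soil and postemergence to 1- to 4-leaf plants.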

nutsedge, yellow = assay: Test E preemergence herbicide test; assay type: in vivo, Cyperus esculentus; parameters: key: 0 = no effect, 100 = complete control
Text: (§2) Seeds of plant species selected from corn (Zea mays), soybean (Glycine max), velvetleaf (Abutilon theophrasti), lambsquarters (Chenopodium album), wild poinsettia (Euphorbia heterophylla), pigweed, palmer (palmer pigweed, Amaranthus palmeri), waterhemp (common waterhemp, Amaranthus rudis), surinam grass (Brachiaria decumbens), crabgrass, large (large crabgrass, Digitaria sanguinalis), crabgrass, Brazil (Brazilian crabgrass, Digitaria horizontalis), panicum, fall (fall panicum, Panicum dichotomiflorum), foxtail, giant (giant foxtail, Setaria faberii), foxtail, green (green foxtail, Setaria viridis), goosegrass (Eleusine indica), johnsongrass (Sorghum halepense), ragweed (common ragweed, Ambrosia elatior), barnyardgrass (Echinochloa crus-galli), sandbur (southern sandbur, Cenchrus echinatus), arrowleaf […] rhombifolia), ryegrass, Italian (Italian ryegrass, Lolium multiflorum), dayflower, VA (Virginia dayflower, Commelina virginica), field bindweed (Convolvulus arvensis), morningglory (Ipomoea coccinea), nightshade (eastern black nightshade, Solanum ptycanthum), kochia (Kochia scoparia), nutsedge, yellow (yellow nutsedge, Cyperus esculentus), cocklebur (common cocklebur, Xanthium strumarium), smartweed (ladysthumb smartweed, Polygonum Persicaria) and beggarticks (hairy beggarticks, Bidens pilosa), were planted into a silt loam soil and treated preemergence with test chemicals formulated in a non-phytotoxic solvent mixture which included a surfactant. Treated plants and controls were maintained in a greenhouse for 21 days, after which time all species were compared to controls and visually evaluated. Plant response ratings, summarized in Table E, are based on a scale of 0 to 100 where 0 is no effect and 100 is complete control. A dash (-) response means no test result.

surinam grass = assay: Test C pre-/postemergence herbicide test; assay type: in vivo, Brachiaria decumbens
Summary of the method: as §1

panicum, fall = assay: Test E preemergence herbicide test; assay type: in vivo, Panicum dichotomiflorum; parameters: key: 0 = no effect, 100 = complete control
Text: as §2

chamomile = assay: Test D pre-/postemergence herbicide test; assay type: in vivo, Matricaria inodora; settings: for Plant response rating: Chamomile, scale 0 to 100; for Plant response rating, Chamomile: scale 0 to 100 (0 no effect, 100 complete control)
Summary of the method: (§3)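 Visual ratings from 0 (no effect) to 100 (complete control) were made against untreated controls 7 to 21 days after treatment. Application was both preemergence, on silt loam soil, and postemergence, to 1- to 4-leaf plants 2-18 cm tall; compounds were formulated in a non-phytotoxic surfactant-containing solvent.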

mustard, wild = assay: Test D pre-/postemergence herbicide test; assay type: in vivo, Sinapis arvensis; settings: for Plant response rating: Mustard, Wild, scale 0 to 100; for Plant response rating, Mustard, Wild: scale 0 to 100 (0 no effect, 100 complete control)
Summary of the method: as §3

[1] = Preemergence, 62 g ai/ha, scale 0 to 100
[2] = Preemergence, 125 g ai/ha, scale 0 to 100 (0 no effect, 100 complete control)
[3] = Preemergence, 31 g ai/ha, scale 0 to 100 (0 no effect, 100 complete control)
[4] = Postemergence, 31 g ai/ha, scale 0 (no effect) to 100 (complete control)
[5] = Postemergence, 62 g ai/ha, scale 0 to 100 (0 no effect, 100 complete control)
[6] = Postemergence, 125 g ai/ha, scale 0 to 100 (0 no effect, 100 complete control)
[7] = Postemergence, 250 g ai/ha, scale 0 to 100 (0 no effect, 100 complete control)

O=C1NCC(c2ccc(Cl)c(Cl)c2)C1C(=O)Nc1ccccc1F (racemic) [Compound 14]
Plant response rating, Goosegrass (goosegrass; [1]): 0
Plant response rating, Goosegrass (goosegrass; [2]): 0
Goosegrass plant response rating (goosegrass; [3]): 0
Plant response rating, Nutsedge, Yellow (nutsedge, yellow; 16 g ai/ha): 0
Plant response rating, Nutsedge, Yellow (nutsedge, yellow; 31 g ai/ha): 0
Plant response rating, Nutsedge, Yellow (nutsedge, yellow; 62 g ai/ha): 0
Plant response rating, Nutsedge, Yellow (nutsedge, yellow; 125 g ai/ha): 0
Plant response rating, Nutsedge, Yellow (nutsedge, yellow; 250 g ai/ha): 0
Plant response rating, Surinam Grass (surinam grass; [1]): 80
Plant response rating, Surinam Grass (surinam grass; [2]): 95
Plant response rating, Panicum, Fall (panicum, fall; 16 g ai/ha): 0
Plant response rating, Panicum, Fall (panicum, fall; 31 g ai/ha): 0
Plant response rating, Panicum, Fall (panicum, fall; 62 g ai/ha): 0
Plant response rating, Panicum, Fall (panicum, fall; 250 g ai/ha): 40

O=C1NCC(c2ccc(C(F)(F)F)cc2)C1C(=O)Nc1cccc(F)c1F (racemic) [Compound 202]
Plant response rating, Nutsedge, Yellow (nutsedge, yellow; 31 g ai/ha): 0
Plant response rating, Nutsedge, Yellow (nutsedge, yellow; 62 g ai/ha): 0
Plant response rating, Nutsedge, Yellow (nutsedge, yellow; 125 g ai/ha): 0
Plant response rating, Nutsedge, Yellow (nutsedge, yellow; 250 g ai/ha): 0
Plant response rating (chamomile; Postemergence, 31 g ai/ha): 5
Plant response rating (chamomile; Postemergence, 62 g ai/ha): 60
Plant response rating (chamomile; Postemergence, 125 g ai/ha): 65
Plant response rating (chamomile; Postemergence, 250 g ai/ha): 60
Plant response rating, Chamomile (chamomile; Preemergence, 62 g ai/ha): 65
Plant response rating, Chamomile (chamomile; Preemergence, 31 g ai/ha): 60
Plant response rating (chamomile; Preemergence, 125 g ai/ha): 75
Plant response rating (chamomile; Preemergence, 250 g ai/ha): 100
Plant response rating (mustard, wild; Postemergence, 31 g ai/ha): 85
Plant response rating (mustard, wild; Postemergence, 62 g ai/ha): 80
Plant response rating (mustard, wild; Postemergence, 125 g ai/ha): 80
Plant response rating (mustard, wild; Postemergence, 250 g ai/ha): 85
Plant response rating, Mustard, Wild (mustard, wild; Preemergence, 62 g ai/ha): 0
Plant response rating, Mustard, Wild (mustard, wild; Preemergence, 31 g ai/ha): 0
Plant response rating (mustard, wild; Preemergence, 125 g ai/ha): 20
Plant response rating (mustard, wild; Preemergence, 250 g ai/ha): 75
Plant response rating, Panicum, Fall (panicum, fall; 31 g ai/ha): 0
Plant response rating, Panicum, Fall (panicum, fall; 62 g ai/ha): 0
Plant response rating, Panicum, Fall (panicum, fall; 125 g ai/ha): 50
Plant response rating, Panicum, Fall (panicum, fall; 250 g ai/ha): 85

O=C1NCC(c2ccc(F)c(F)c2)C1C(=O)Nc1cccc(F)c1F (stereo not shown) [Compound 17, N-(2,3-difluorophenyl)-4-(3,4-difluorophenyl)-2-oxo-3-pyrrolidinecarboxamide]
Plant response rating, Goosegrass (goosegrass; [4]): 0
Plant response rating, Goosegrass (goosegrass; [5]): 0
Plant response rating, Goosegrass (goosegrass; [6]): 0
Plant response rating, Goosegrass (goosegrass; [7]): 0
Plant response rating, Goosegrass (goosegrass; [1]): 50
Plant response rating, Goosegrass (goosegrass; [2]): 85
Goosegrass plant response rating (goosegrass; [3]): 0
Plant response rating, Nutsedge, Yellow (nutsedge, yellow; 16 g ai/ha): 0
Plant response rating, Nutsedge, Yellow (nutsedge, yellow; 31 g ai/ha): 0
Plant response rating, Nutsedge, Yellow (nutsedge, yellow; 62 g ai/ha): 0
Plant response rating, Nutsedge, Yellow (nutsedge, yellow; 125 g ai/ha): 0
Plant response rating, Nutsedge, Yellow (nutsedge, yellow; 250 g ai/ha): 15
Plant response rating (chamomile; Postemergence, 16 g ai/ha): 0
Plant response rating (chamomile; Postemergence, 31 g ai/ha): 0
Plant response rating (chamomile; Postemergence, 62 g ai/ha): 0
Plant response rating (chamomile; Postemergence, 125 g ai/ha): 0
Plant response rating (chamomile; Postemergence, 250 g ai/ha): 0
Plant response rating (mustard, wild; Postemergence, 16 g ai/ha): 0
Plant response rating (mustard, wild; Postemergence, 31 g ai/ha): 0
Plant response rating (mustard, wild; Postemergence, 62 g ai/ha): 10
Plant response rating (mustard, wild; Postemergence, 125 g ai/ha): 30
Plant response rating (mustard, wild; Postemergence, 250 g ai/ha): 30
Plant response rating, Surinam Grass (surinam grass; [4]): 0
Plant response rating, Surinam Grass (surinam grass; [5]): 0
Plant response rating, Surinam Grass (surinam grass; [6]): 45
Plant response rating, Surinam Grass (surinam grass; [7]): 60
Plant response rating, Surinam Grass (surinam grass; [1]): 90
Plant response rating, Surinam Grass (surinam grass; [2]): 90
Plant response rating, Panicum, Fall (panicum, fall; 16 g ai/ha): 0
Plant response rating, Panicum, Fall (panicum, fall; 31 g ai/ha): 0
Plant response rating, Panicum, Fall (panicum, fall; 62 g ai/ha): 0
Plant response rating, Panicum, Fall (panicum, fall; 125 g ai/ha): 0
Plant response rating, Panicum, Fall (panicum, fall; 250 g ai/ha): 0

O=C1NCC(c2ccc(C(F)(F)F)cc2)C1C(=O)Nc1cccc(F)c1F (stereo not shown) [Compound 80, N-(2,3-difluorophenyl)-2-oxo-4-[4-(trifluoromethyl)phenyl]-3-pyrrolidinecarboxamide]
Plant response rating, Nutsedge, Yellow (nutsedge, yellow; 16 g ai/ha): 0
Plant response rating, Nutsedge, Yellow (nutsedge, yellow; 31 g ai/ha): 0
Plant response rating, Nutsedge, Yellow (nutsedge, yellow; 62 g ai/ha): 0
Plant response rating, Nutsedge, Yellow (nutsedge, yellow; 125 g ai/ha): 0
Plant response rating, Nutsedge, Yellow (nutsedge, yellow; 250 g ai/ha): 0
Plant response rating (chamomile; Postemergence, 31 g ai/ha): 20
Plant response rating (chamomile; Postemergence, 62 g ai/ha): 30
Plant response rating (chamomile; Postemergence, 125 g ai/ha): 35
Plant response rating (chamomile; Postemergence, 250 g ai/ha): 50
Plant response rating, Chamomile (chamomile; Preemergence, 62 g ai/ha): 80
Plant response rating, Chamomile (chamomile; Preemergence, 31 g ai/ha): 80
Plant response rating (chamomile; Preemergence, 125 g ai/ha): 80
Plant response rating (chamomile; Preemergence, 250 g ai/ha): 85
Plant response rating (mustard, wild; Postemergence, 31 g ai/ha): 70
Plant response rating (mustard, wild; Postemergence, 62 g ai/ha): 80
Plant response rating (mustard, wild; Postemergence, 125 g ai/ha): 85
Plant response rating (mustard, wild; Postemergence, 250 g ai/ha): 85
Plant response rating, Mustard, Wild (mustard, wild; Preemergence, 62 g ai/ha): 25
Plant response rating, Mustard, Wild (mustard, wild; Preemergence, 31 g ai/ha): 0
Plant response rating (mustard, wild; Preemergence, 125 g ai/ha): 65
Plant response rating (mustard, wild; Preemergence, 250 g ai/ha): 70
Plant response rating, Panicum, Fall (panicum, fall; 16 g ai/ha): 0
Plant response rating, Panicum, Fall (panicum, fall; 31 g ai/ha): 0
Plant response rating, Panicum, Fall (panicum, fall; 62 g ai/ha): 0
Plant response rating, Panicum, Fall (panicum, fall; 125 g ai/ha): 0
Plant response rating, Panicum, Fall (panicum, fall; 250 g ai/ha): 0
